In PubChem BioAssay (NCI):
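Cultured in 96-well plates, cells were exposed to test compound for 48 hours across five concentrations. At the GI50, growth is halved. TGI denotes the concentration required for complete inhibition of growth.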

How the values were obtained:
Assay in all cases: inhibition of tumour cell growth, NCI panel, 48 h
786-0 renal = system: 786-0 renal
A498 renal = system: A498 renal
A549 NSCLC = system: A549 NSCLC
ACHN renal = system: ACHN renal
BT-549 breast = system: BT-549 breast
CAKI-1 renal = system: CAKI-1 renal
CCRF-CEM leukemia = system: CCRF-CEM leukemia
COLO 205 colon = system: COLO 205 colon
DU-145 prostate = system: DU-145 prostate
EKVX NSCLC = system: EKVX NSCLC
HCC-2998 colon = system: HCC-2998 colon
HCT-116 colon = system: HCT-116 colon
HCT-15 colon = system: HCT-15 colon
HL-60(TB) leukemia = system: HL-60(TB) leukemia
HOP-62 NSCLC = system: HOP-62 NSCLC
HOP-92 NSCLC = system: HOP-92 NSCLC
HS 578T breast = system: HS 578T breast
HT29 colon = system: HT29 colon
IGROV1 ovarian = system: IGROV1 ovarian
K-562 leukemia = system: K-562 leukemia
KM12 colon = system: KM12 colon
LOX IMVI melanoma = system: LOX IMVI melanoma
M14 melanoma = system: M14 melanoma
MALME-3M melanoma = system: MALME-3M melanoma
MCF7 breast = system: MCF7 breast
MDA-MB-231 breast = system: MDA-MB-231 breast
MOLT-4 leukemia = system: MOLT-4 leukemia
NCI-H226 lung = system: NCI-H226 lung
NCI-H23 lung = system: NCI-H23 lung
NCI-H460 lung = system: NCI-H460 lung
NCI-H522 lung = system: NCI-H522 lung
NCI/ADR-RES ovarian = system: NCI/ADR-RES ovarian
OVCAR-3 ovarian = system: OVCAR-3 ovarian
OVCAR-4 ovarian = system: OVCAR-4 ovarian
OVCAR-5 ovarian = system: OVCAR-5 ovarian
OVCAR-8 ovarian = system: OVCAR-8 ovarian
PC-3 prostate = system: PC-3 prostate
RPMI-8226 leukemia = system: RPMI-8226 leukemia
RXF 393 renal = system: RXF 393 renal
SF-268 CNS = system: SF-268 CNS
SF-295 CNS = system: SF-295 CNS
SF-539 CNS = system: SF-539 CNS
SK-MEL-2 melanoma = system: SK-MEL-2 melanoma
SK-MEL-28 melanoma = system: SK-MEL-28 melanoma
SK-MEL-5 melanoma = system: SK-MEL-5 melanoma
SK-OV-3 ovarian = system: SK-OV-3 ovarian
SN12C renal = system: SN12C renal
SNB-19 CNS = system: SNB-19 CNS
SNB-75 CNS = system: SNB-75 CNS
SR leukemia = system: SR leukemia
SW-620 colon = system: SW-620 colon
T-47D breast = system: T-47D breast
TK-10 renal = system: TK-10 renal
U251 CNS = system: U251 CNS
UACC-257 melanoma = system: UACC-257 melanoma
UACC-62 melanoma = system: UACC-62 melanoma
UO-31 renal = system: UO-31 renal

## CSCCC(NC(=O)CNC(=O)C(CC(=O)O)NC(=O)C(NC(=O)C(NC(=O)C(NC(=O)CNC(=O)C(CCC(N)=O)NC(=O)C(CCSC)NC(=O)C(CC(=O)O)NC(=O)C(C)NC(=O)C(C)NC(=O)C(NC(=O)C(CO)NC(=O)C(N)CC(C)C)C(C)O)C(C)C)C(C)C)C(C)O)C(=O)NC(C)C(=O)NC(CO)C(=O)NCC(=O)NC(CC(C)C)C(=O)NC(CC(=O)O)C(=O)NC(CCCCN)C(=O)NC(CC(=O)O)C(=O)NC(Cc1ccc(O)cc1)C(=O)NC(CC(C)C)C(=O)NC(CCCCN)C(=O)N1CCCC1C(=O)NC(CC(=O)O)C(=O)NC(CC(=O)O)C(=O)O (centres undefined)
786-0 renal
  GI50: > 82.5 µM
  TGI: > 82.5 µM
A498 renal
  GI50: > 82.5 µM
  TGI: > 82.5 µM
A549 NSCLC
  GI50: > 82.5 µM
  TGI: > 82.5 µM
ACHN renal
  GI50: > 82.5 µM
  TGI: > 82.5 µM
BT-549 breast
  GI50: > 82.5 µM
  TGI: > 82.5 µM
CAKI-1 renal
  GI50: > 82.5 µM
  TGI: > 82.5 µM
CCRF-CEM leukemia
  GI50: > 82.5 µM
  TGI: > 82.5 µM
COLO 205 colon
  GI50: > 82.5 µM
  TGI: > 82.5 µM
DU-145 prostate
  GI50: > 82.5 µM
  TGI: > 82.5 µM
EKVX NSCLC
  GI50: > 82.5 µM
  TGI: > 82.5 µM
HCC-2998 colon
  GI50: > 82.5 µM
  TGI: > 82.5 µM
HCT-116 colon
  GI50: > 82.5 µM
  TGI: > 82.5 µM
HCT-15 colon
  GI50: > 82.5 µM
  TGI: > 82.5 µM
HL-60(TB) leukemia
  GI50: > 82.5 µM
  TGI: > 82.5 µM
HOP-62 NSCLC
  GI50: > 82.5 µM
  TGI: > 82.5 µM
HOP-92 NSCLC
  GI50: > 82.5 µM
  TGI: > 82.5 µM
HS 578T breast
  GI50: > 82.5 µM
  TGI: > 82.5 µM
HT29 colon
  GI50: > 82.5 µM
  TGI: > 82.5 µM
IGROV1 ovarian
  GI50: > 82.5 µM
  TGI: > 82.5 µM
K-562 leukemia
  GI50: > 82.5 µM
  TGI: > 82.5 µM
KM12 colon
  GI50: > 82.5 µM
  TGI: > 82.5 µM
LOX IMVI melanoma
  GI50: > 82.5 µM
  TGI: > 82.5 µM
M14 melanoma
  GI50: > 82.5 µM
  TGI: > 82.5 µM
MALME-3M melanoma
  GI50: > 82.5 µM
  TGI: > 82.5 µM
MCF7 breast
  GI50: > 82.5 µM
  TGI: > 82.5 µM
MDA-MB-231 breast
  GI50: > 82.5 µM
  TGI: > 82.5 µM
MOLT-4 leukemia
  GI50: > 82.5 µM
  TGI: > 82.5 µM
NCI-H226 lung
  GI50: > 82.5 µM
  TGI: > 82.5 µM
NCI-H23 lung
  GI50: > 82.5 µM
  TGI: > 82.5 µM
NCI-H460 lung
  GI50: > 82.5 µM
  TGI: > 82.5 µM
NCI-H522 lung
  GI50: > 82.5 µM
  TGI: > 82.5 µM
NCI/ADR-RES ovarian
  GI50: > 82.5 µM
  TGI: > 82.5 µM
OVCAR-3 ovarian
  GI50: > 82.5 µM
  TGI: > 82.5 µM
OVCAR-4 ovarian
  GI50: > 82.5 µM
  TGI: > 82.5 µM
OVCAR-5 ovarian
  GI50: > 82.5 µM
  TGI: > 82.5 µM
OVCAR-8 ovarian
  GI50: > 82.5 µM
  TGI: > 82.5 µM
PC-3 prostate
  GI50: > 82.5 µM
  TGI: > 82.5 µM
RPMI-8226 leukemia
  GI50: > 82.5 µM
  TGI: > 82.5 µM
RXF 393 renal
  GI50: > 82.5 µM
  TGI: > 82.5 µM
SF-268 CNS
  GI50: > 82.5 µM
  TGI: > 82.5 µM
SF-295 CNS
  GI50: > 82.5 µM
  TGI: > 82.5 µM
SF-539 CNS
  GI50: > 82.5 µM
  TGI: > 82.5 µM
SK-MEL-2 melanoma
  GI50: > 82.5 µM
  TGI: > 82.5 µM
SK-MEL-28 melanoma
  GI50: > 82.5 µM
  TGI: > 82.5 µM
SK-MEL-5 melanoma
  GI50: > 82.5 µM
  TGI: > 82.5 µM
SK-OV-3 ovarian
  GI50: > 82.5 µM
  TGI: > 82.5 µM
SN12C renal
  GI50: > 82.5 µM
  TGI: > 82.5 µM
SNB-19 CNS
  GI50: > 82.5 µM
  TGI: > 82.5 µM
SNB-75 CNS
  GI50: > 82.5 µM
  TGI: > 82.5 µM
SR leukemia
  GI50: > 82.5 µM
  TGI: > 82.5 µM
SW-620 colon
  GI50: > 82.5 µM
  TGI: > 82.5 µM
T-47D breast
  GI50: > 82.5 µM
  TGI: > 82.5 µM
TK-10 renal
  GI50: > 82.5 µM
  TGI: > 82.5 µM
U251 CNS
  GI50: > 82.5 µM
  TGI: > 82.5 µM
UACC-257 melanoma
  GI50: > 82.5 µM
  TGI: > 82.5 µM
UACC-62 melanoma
  GI50: > 82.5 µM
  TGI: > 82.5 µM
UO-31 renal
  GI50: > 82.5 µM
  TGI: > 82.5 µM
